{"source": "patent US20240300940A1", "about": "“Phenothiazinyl Compounds and Uses” (Prosetta Biosciences, Inc., priority 2023, published 2024)", "system": "Hennes-20 cells", "assay": "Hennes-20 oncology screen", "type": "cell-based", "conditions": "72 h, alamar Blue", "method_in_brief": "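Cells seeded at 500 and 15,000 per well in minimum essential medium, dosed with a compound titration after 24 h, then incubated 72 h at 37 °C. Alamar Blue added and incubated a further 72 h, read at 530/590. Lower signal only at low density indicates proliferation arrest; lower signal at both densities indicates toxicity.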", "data": [{"smiles": "CC1(C)C2CN(c3ccc4nc5ccc(N6CC7C(C6)C7(C)C)cc5[s+]c4c3)CC21", "note": "(stereo not shown) [Compound 1, 3,7-Di(6,6-dimethyl-3-azabicyclo[3.1.0]hexan-N-yl)phenothiazinium iodide]", "values": [{"measurement": "EC50", "result": 500, "unit": "nM"}]}]}
